Data reported in patent US10479795B2 (Incyte Corporation, priority 2016, dated 2019).
Where a name gives a salt, the structure may show the parent alone. Read-outs that look alike come from different tables or passages of the source.

How the values were obtained:
[1] = test system: Phosphorylated Ribosomal Protein S6 (RPS6); experiment: THP-1 RPS6 ELISA Assay; type: cell-based, Human; details: THP-1 cells, read-out: PI3Kγ_THP1_RPS6_ELISA IC50
In short: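 IC50 values come from a curve of percent inhibition against log compound concentration, using phospho-RPS6 ELISA (450 nm) on THP-1 lysates. Cells were serum-starved overnight, exposed to compound for 2 h at 37 °C, then challenged 15 min with 10 nM MCP-1.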

[2] = target: PI3Kγ (p110γ) Recombinant Human Protein (Homo sapiens (Human), UniProt P48736); experiment: PI3K-γ Scintillation Proximity Assay; type: biochemical; details: read-out: PI3Kγ IC50
Chain of PI3Kγ (p110γ) Recombinant Human Protein (P48736 whole entry): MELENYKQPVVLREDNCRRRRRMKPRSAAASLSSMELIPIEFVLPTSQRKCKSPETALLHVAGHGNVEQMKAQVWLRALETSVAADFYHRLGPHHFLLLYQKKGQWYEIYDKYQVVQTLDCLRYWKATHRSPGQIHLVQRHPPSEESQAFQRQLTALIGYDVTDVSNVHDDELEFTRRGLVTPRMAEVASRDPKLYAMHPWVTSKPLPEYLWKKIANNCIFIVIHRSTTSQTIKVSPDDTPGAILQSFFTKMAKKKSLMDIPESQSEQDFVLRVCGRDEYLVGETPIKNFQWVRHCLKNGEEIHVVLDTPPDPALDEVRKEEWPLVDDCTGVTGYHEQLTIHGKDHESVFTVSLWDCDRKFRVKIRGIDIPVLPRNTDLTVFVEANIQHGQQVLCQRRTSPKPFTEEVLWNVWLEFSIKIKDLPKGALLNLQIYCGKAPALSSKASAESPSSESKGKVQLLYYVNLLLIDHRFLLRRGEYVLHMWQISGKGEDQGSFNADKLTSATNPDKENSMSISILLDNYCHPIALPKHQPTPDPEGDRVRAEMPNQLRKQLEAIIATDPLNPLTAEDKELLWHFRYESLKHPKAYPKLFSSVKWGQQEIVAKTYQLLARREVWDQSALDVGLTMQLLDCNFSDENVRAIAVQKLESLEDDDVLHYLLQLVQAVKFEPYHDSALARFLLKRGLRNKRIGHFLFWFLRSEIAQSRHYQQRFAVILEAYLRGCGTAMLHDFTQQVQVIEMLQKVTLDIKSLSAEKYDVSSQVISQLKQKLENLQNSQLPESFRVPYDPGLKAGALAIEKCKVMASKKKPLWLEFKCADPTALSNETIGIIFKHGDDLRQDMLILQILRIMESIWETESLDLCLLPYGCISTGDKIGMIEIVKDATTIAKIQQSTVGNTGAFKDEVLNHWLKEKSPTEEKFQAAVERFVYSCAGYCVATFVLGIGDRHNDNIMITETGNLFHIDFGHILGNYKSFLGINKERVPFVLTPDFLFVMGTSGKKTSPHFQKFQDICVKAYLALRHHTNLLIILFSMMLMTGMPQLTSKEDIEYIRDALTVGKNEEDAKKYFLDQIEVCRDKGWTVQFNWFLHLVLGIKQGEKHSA
In short: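 Radiometric SPA readout: […] bound to WGA beads after overnight shaking, IC50 derived from % activity of DMSO control. Reaction used human p110γ, 2 μM ATP, 20 μM PIP2, pH 6.7 MOPS buffer with MgCl2, DTT, CHAPS, 2% DMSO, room temperature.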

[3] = target: PI3Kδ (p110δ/p85α) Recombinant Human Protein (Homo sapiens (Human), UniProt O00329); experiment: PI3Kδ Scintillation Proximity Assay; type: biochemical
Chain of PI3Kδ (p110δ/p85α) Recombinant Human Protein (O00329 whole entry): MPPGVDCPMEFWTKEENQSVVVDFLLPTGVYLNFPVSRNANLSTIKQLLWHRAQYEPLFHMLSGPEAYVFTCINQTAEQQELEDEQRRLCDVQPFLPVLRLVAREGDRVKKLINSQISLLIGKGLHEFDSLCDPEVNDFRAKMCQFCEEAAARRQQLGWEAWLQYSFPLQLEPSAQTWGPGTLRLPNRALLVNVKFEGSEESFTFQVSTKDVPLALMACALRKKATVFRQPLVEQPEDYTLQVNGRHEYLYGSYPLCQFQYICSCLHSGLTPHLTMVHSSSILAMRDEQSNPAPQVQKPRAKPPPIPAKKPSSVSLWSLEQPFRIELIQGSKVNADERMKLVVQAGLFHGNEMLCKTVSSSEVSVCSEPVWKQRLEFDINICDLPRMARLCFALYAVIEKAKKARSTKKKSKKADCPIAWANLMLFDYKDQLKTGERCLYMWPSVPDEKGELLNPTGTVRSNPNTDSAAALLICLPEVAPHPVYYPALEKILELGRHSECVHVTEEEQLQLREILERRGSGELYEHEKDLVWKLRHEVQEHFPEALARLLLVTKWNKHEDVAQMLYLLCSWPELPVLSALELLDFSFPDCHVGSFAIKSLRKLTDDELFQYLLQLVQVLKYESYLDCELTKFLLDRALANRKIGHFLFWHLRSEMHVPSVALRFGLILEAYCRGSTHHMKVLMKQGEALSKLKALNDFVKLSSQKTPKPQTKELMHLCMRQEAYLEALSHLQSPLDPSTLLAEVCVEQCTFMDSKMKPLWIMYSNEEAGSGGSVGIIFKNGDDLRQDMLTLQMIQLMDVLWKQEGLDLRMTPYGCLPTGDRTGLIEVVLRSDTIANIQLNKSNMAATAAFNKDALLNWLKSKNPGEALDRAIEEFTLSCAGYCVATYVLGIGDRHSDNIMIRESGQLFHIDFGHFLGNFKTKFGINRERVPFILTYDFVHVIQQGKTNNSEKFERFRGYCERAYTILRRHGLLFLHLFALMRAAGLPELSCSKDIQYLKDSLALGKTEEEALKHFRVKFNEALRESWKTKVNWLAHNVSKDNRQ
Chain of PI3Kδ (p110δ/p85α) Recombinant Human Protein (P27986 whole entry partner): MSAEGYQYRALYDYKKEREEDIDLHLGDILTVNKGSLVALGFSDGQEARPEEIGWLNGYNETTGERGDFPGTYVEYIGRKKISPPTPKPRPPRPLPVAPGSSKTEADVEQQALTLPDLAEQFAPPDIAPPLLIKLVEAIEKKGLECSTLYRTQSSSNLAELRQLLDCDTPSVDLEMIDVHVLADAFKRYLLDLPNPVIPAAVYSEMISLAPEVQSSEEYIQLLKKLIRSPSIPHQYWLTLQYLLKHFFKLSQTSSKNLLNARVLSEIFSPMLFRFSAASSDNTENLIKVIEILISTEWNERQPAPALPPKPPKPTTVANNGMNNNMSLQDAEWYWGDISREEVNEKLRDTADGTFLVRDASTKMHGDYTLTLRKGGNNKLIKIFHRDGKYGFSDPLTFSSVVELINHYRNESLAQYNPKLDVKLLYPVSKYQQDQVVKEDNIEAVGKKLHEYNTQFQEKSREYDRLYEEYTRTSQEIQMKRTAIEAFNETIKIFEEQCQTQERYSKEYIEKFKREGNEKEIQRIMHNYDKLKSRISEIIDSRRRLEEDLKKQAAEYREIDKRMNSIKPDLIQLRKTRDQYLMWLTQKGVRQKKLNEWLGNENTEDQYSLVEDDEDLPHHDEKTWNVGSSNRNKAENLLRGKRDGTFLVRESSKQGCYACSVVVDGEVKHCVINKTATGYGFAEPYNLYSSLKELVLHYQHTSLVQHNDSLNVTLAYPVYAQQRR
In short: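 Assay conditions: 2 μM ATP (radiolabelled), 20 μM PIP2, 3.4 nM PI3Kδ, 20 mM MOPS pH 6.7 with 10 mM MgCl2, 5 mM DTT, 0.03% CHAPS, 2 h at room temperature. Signal from bead-captured 33P product; IC50 versus solvent control.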

Compound | IC50 ([1]; Homo sapiens) [nM] | IC50 [2] [nM] | IC50 [3] [nM] | IC50 [1] [nM]
O=C(O)C(F)(F)F.[2H]C([2H])([2H])c1ccc(S(=O)(=O)NC23CC(CO)(C2)C3)cc1-c1cnc2c(N)nc(C(F)(F)F)cn12 [Example 391, 3-(8-Amino-6-(trifluoromethyl)imidazo[1,2-a]pyrazin-3-yl)-N-(3-(hydroxymethyl)bicyclo[1.1.1]pentan-1-yl)-4-(methyl-d3)benzenesulfonamide trifluoroacetate salt] | < 100 | < 100 | 100 to 500 | 
N#CC12CCC(NS(=O)(=O)c3cc(-c4cnc5c(N)nc(C(F)(F)F)cn45)ccc3Cl)(C1)C2 [Example 392, 5-(8-Amino-6-(trifluoromethyl)imidazo[1,2-a]pyrazin-3-yl)-2-chloro-N-(4-cyanobicyclo[2.1.1]hexan-1-yl)benzenesulfonamide trifluoroacetate salt] | 100 to 500 | < 100 | < 100 | 
Nc1nc(C(F)(F)F)cn2c(-c3cc(S(=O)(=O)NC45CCC(CO)(C4)C5)ccc3Cl)cnc12 [Example 393, 3-(8-Amino-6-(trifluoromethyl)imidazo[1,2-a]pyrazin-3-yl)-4-chloro-N-(4-(hydroxymethyl)bicyclo[2.1.1]hexan-1-yl)benzenesulfonamide] | 100 to 500 | < 100 | 500 to 2000 | 
Nc1nc(C(F)(F)F)cn2c(-c3cccc(S(=O)(=O)NC45CCC(CO)(C4)C5)c3)cnc12 [Example 394, 3-(8-Amino-6-(trifluoromethyl)imidazo[1,2-a]pyrazin-3-yl)-N-(4-(hydroxymethyl)bicyclo[2.1.1]hexan-1-yl)benzenesulfonamide trifluoroacetate salt] | 100 to 500 | < 100 | 100 to 500 | 
N#CC12CCC(NS(=O)(=O)c3cccc(-c4cnc5c(N)nc(C(F)(F)F)cn45)c3)(C1)C2 [Example 395, 3-(8-Amino-6-(trifluoromethyl)imidazo[1,2-a]pyrazin-3-yl)-N-(4-cyanobicyclo[2.1.1]hexan-1-yl)benzenesulfonamide trifluoroacetate salt] | 100 to 500 | < 100 | 100 to 500 | 
N#CC12CCC(NS(=O)(=O)c3cc(-c4cnc5c(N)nc(C(F)(F)F)cn45)ccc3F)(C1)C2 [Example 396, 5-(8-Amino-6-(trifluoromethyl)imidazo[1,2-a]pyrazin-3-yl)-N-(4-cyanobicyclo[2.1.1]hexan-1-yl)-2-fluorobenzenesulfonamide trifluoroacetate salt] | 500 to 1000 | < 100 | 100 to 500 | 
Cc1c(F)cc(S(=O)(=O)NC23CCC(C#N)(C2)C3)cc1-c1cnc2c(N)nc(C(F)(F)F)cn12 [Example 397, 3-(8-Amino-6-(trifluoromethyl)imidazo[1,2-a]pyrazin-3-yl)-N-(4-cyanobicyclo[2.1.1]hexan-1-yl)-5-fluoro-4-methylbenzenesulfonamide trifluoroacetate salt] | < 100 | < 100 | 100 to 500 | 
Nc1nc(C(F)(F)F)cn2c(-c3ccc(F)c(S(=O)(=O)NC45CCC(CO)(C4)C5)c3)cnc12 [Example 398, 5-(8-Amino-6-(trifluoromethyl)imidazo[1,2-a]pyrazin-3-yl)-2-fluoro-N-(4-(hydroxymethyl)bicyclo[2.1.1]hexan-1-yl)benzenesulfonamide trifluoroacetate salt] | 500 to 1000 | < 100 | 100 to 500 | 
Nc1nc(C(F)(F)F)cn2c(-c3ccc(Cl)c(S(=O)(=O)NC45CCC(CO)(C4)C5)c3)cnc12 [Example 399, 5-(8-Amino-6-(trifluoromethyl)imidazo[1,2-a]pyrazin-3-yl)-2-chloro-N-(4-(hydroxymethyl)bicyclo[2.1.1]hexan-1-yl)benzenesulfonamide trifluoroacetate salt] | > 1000 | < 100 | < 100 | 
Cc1cc(C)c(S(=O)(=O)NC23CCC(CO)(C2)C3)cc1-c1cnc2c(N)nc(C(F)(F)F)cn12 [Example 400, 5-(8-Amino-6-(trifluoromethyl)imidazo[1,2-a]pyrazin-3-yl)-N-(4-(hydroxymethyl)bicyclo[2.1.1]hexan-1-yl)-2,4-dimethylbenzenesulfonamide trifluoroacetate salt] | < 100 | < 100 | < 100 | 
Cc1nc(N)c2ncc(-c3cc(S(=O)(=O)N[C@H]4CC[C@](C)(O)CC4)c(F)cc3C)n2n1 [Example 402, 5-(4-amino-2-methylimidazo[1,2-f][1,2,4]triazin-7-yl)-2-fluoro-N-((1r,4r)-4-hydroxy-4-methylcyclohexyl)-4-methylbenzenesulfonamide trifluoroacetate salt] |  | < 100 | 100 to 500 | 100 to 500
Cc1nc(N)c2ncc(-c3cc(S(=O)(=O)NCC(C)(C)O)c(Cl)cc3C)n2n1 [Example 403, 5-(4-amino-2-methylimidazo[1,2-f][1,2,4]triazin-7-yl)-2-chloro-N-(2-hydroxy-2-methylpropyl)-4-methylbenzenesulfonamide trifluoroacetate salt] |  | < 100 | 100 to 500 | < 100
Cc1nc(N)c2ncc(-c3cc(S(=O)(=O)NC45CCC(CO)(CC4)OC5)cc(F)c3C)n2n1 [Example 404, 3-(4-amino-2-methylimidazo[1,2-f][1,2,4]triazin-7-yl)-5-fluoro-N-(1-(hydroxymethyl)-2-oxabicyclo[2.2.2]octan-4-yl)-4-methylbenzenesulfonamide trifluoroacetate salt] |  | < 100 | < 100 | < 100
Cc1cc(F)c(S(=O)(=O)N[C@H]2CC[C@H](CC#N)OC2)cc1-c1cnc2c(N)nc(C(F)(F)F)cn12 [Example 405, 5-(8-amino-6-(trifluoromethyl)imidazo[1,2-a]pyrazin-3-yl)-N-((3S,6R)-6-(cyanomethyl)tetrahydro-2H-pyran-3-yl)-2-fluoro-4-methylbenzenesulfonamide trifluoroacetate salt] | < 100 | < 100 | 100 to 500 | 
[2H]C([2H])([2H])c1ccc(S(=O)(=O)N[C@H]2CC[C@H](CC#N)OC2)cc1-c1cnc2c(N)nc(C(F)(F)F)cn12 [Example 406, 3-(8-amino-6-(trifluoromethyl)imidazo[1,2-a]pyrazin-3-yl)-N-((3S,6R)-6-(cyanomethyl)tetrahydro-2H-pyran-3-yl)-4-(methyl-d3)benzenesulfonamide] | < 100 | < 100 | < 100 | 
Cc1cc(F)c(S(=O)(=O)N2CCCC(CO)C2)cc1-c1cnc2c(N)nc(C(F)(F)F)cn12 (stereo not drawn) [Example 408, (1-((5-(8-Amino-6-(trifluoromethyl)imidazo[1,2-a]pyrazin-3-yl)-2-fluoro-4-methylphenyl)sulfonyl)piperidin-3-yl)methanol] | > 1000 | < 100 | 100 to 500 | 
[2H]C([2H])([2H])c1ccc(S(=O)(=O)N2CCCC(CO)C2)cc1-c1cnc2c(N)nc(C(F)(F)F)cn12 (stereo not drawn) [Example 409, (1-((3-(8-Amino-6-(trifluoromethyl)imidazo[1,2-a]pyrazin-3-yl)-4-(methyl-d3)phenyl)sulfonyl)piperidin-3-yl)methanol] | 100 to 500 | < 100 | 100 to 500 | 
Cc1cc(Cl)c(S(=O)(=O)N[C@H]2CC[C@](C)(O)CC2)cc1-c1cnc2c(N)nc(C(F)(F)F)nn12 [Example 410, 5-(4-Amino-2-(trifluoromethyl)imidazo[1,2-f][1,2,4]triazin-7-yl)-2-chloro-N-((1r,4r)-4-hydroxy-4-methylcyclohexyl)-4-methylbenzenesulfonamide trifluoroacetate salt] |  | < 100 | < 100 | < 100
Nc1nc(C(F)(F)F)nn2c(-c3cccc(S(=O)(=O)NC45CCC(CO)(C4)C5)c3)cnc12 [Example 411, 3-(4-Amino-2-(trifluoromethyl)imidazo[1,2-f][1,2,4]triazin-7-yl)-N-(4-(hydroxymethyl)bicyclo[2.1.1]hexan-1-yl)benzenesulfonamide trifluoroacetate salt] |  | < 100 | 100 to 500 | 100 to 500
Cc1cc(F)c(S(=O)(=O)N[C@H]2CC[C@](C)(O)CC2)cc1-c1cnc2c(N)nc(C(F)(F)F)nn12 [Example 412, 5-(4-Amino-2-(trifluoromethyl)imidazo[1,2-f][1,2,4]triazin-7-yl)-2-fluoro-N-((1r,4r)-4-hydroxy-4-methylcyclohexyl)-4-methylbenzenesulfonamide trifluoroacetate salt] |  | < 100 | 100 to 500 | < 100
Cc1cc(C)c(S(=O)(=O)N[C@H]2CC[C@](C)(O)CC2)cc1-c1cnc2c(N)nc(C(F)(F)F)nn12 [Example 413, 5-(4-Amino-2-(trifluoromethyl)imidazo[1,2-f][1,2,4]triazin-7-yl)-N-((1r,4r)-4-hydroxy-4-methylcyclohexyl)-2,4-dimethylbenzenesulfonamide trifluoroacetate salt] |  | < 100 | 100 to 500 | < 100
